From patent US10632135B2, “Orally available compounds, a process for preparing the same and their uses as anti-adhesive drugs for treating E. coli induced inflammatory bowel diseases such as crohn's disease” (CENTRE NATIONAL DE LA RECHERCHE SCIENTIFIQUE, priority 2014, dated 2020)

How the values were obtained:
[1] = tested on: Adherent-Invasive E. coli strain LF82 adhesion to intestinal epithelial cells T84; assay: Adhesion of Adherent-Invasive E. coli LF82 to intestinal epithelial cells T84 in presence of monovalent compounds (pre-, co- and post-incubation); format: cell-based
Method: E. coli strain LF82 was isolated from a chronic ileal lesion of a patient with Crohn's disease (CD). Bacteria were grown routinely in Luria-Bertani (LB) broth overnight at 37° C. Intestinal epithelial cells T84 derived from colonic adenocarcinoma were maintained in an atmosphere containing 5% CO2 at 37° C. in DMEM/F12 (50/50) medium supplemented with 10% (v/v) heat-inactivated fetal calf serum (FCS), 1% L-glutamine, 100 000 U·l^−1 penicillin, 100 mg·l^−1 streptomycin, 25 μg·l^−1 amphotericin B.
T84 were seeded in 48-well plates at a concentration of 1.5×10^5 cells per well and grown for 48 h. AIEC LF82 bacteria were incubated 1 h with monovalent compounds prior the cell infection (pre-incubation protocol) or they were added simultaneously onto the cells (co-incubation protocol) in complete medium without antibiotics, containing heat inactivated fetal calf serum (FCS). Monovalent compound 10 was tested at a dose of 100; 10; 1 (and 0.1) μM, compound 5 was tested at a dose of 500; 100; 10 and 1 μM and D-mannose was tested at a dose of 10 000; 1 000; 100 or 10 μM. Cells were infected with AIEC LF82 bacteria at a multiplicity of infection (MOI) of 10 bacteria per cell for 3 h at 37° C.
For the post-incubation protocol, monovalent compounds (same doses than in the pre- and co-incubation assays) were incubated with cells for 3 h after bacterial infection. A washing step was realized before this post-incubation to eliminate non-adherent bacteria.
Monolayers were washed in phosphate-buffered saline (PBS; pH 7.2) and cells were then lysed with 1% Triton X-100 in deionized water. […] Results were expressed as percentages of residual adhesion, considering adhesion level of AIEC LF82 without mannosides treatment as 100%.
D-mannose, compounds 5 and 10 were assessed as putative inhibitors to compete the interaction of CEACAM6 expressed by T84 intestinal epithelial cells with the adhesin FimH of AIEC bacteria following three different protocols: pre-, co- and post-incubation experiments (FIG. 1).

[2] = tested on: HUV-EC-C, CCD-18Co, MRC-5 and PWR-1E normal cell lines; format: cell-based, Human
Method: Compounds 10 and 22′ were extemporaneously dissolved at 100 mM in water to obtain a stock solution.
The final concentrations of compounds 10 and 22′ were 100 nM, 1 μM, 10 μM, 100 μM and 1 mM within wells.
The 4 cell lines were plated at optimal density per well in 96-well plates. Plates were incubated at 37° C. for 24 hours before treatment, in drug-free culture medium.
Cell lines were then incubated for 96 hours at 37° C. under 5% CO2 with the 5 concentrations of compounds 10 or 22′ in 1:10 dilution steps. Each concentration was done in triplicate. Control cells were treated with vehicle alone (water).
The dose response for index of cytotoxicity (IC) is expressed as following: […]
IC50 represents the drug concentration required to obtain 50% of cellular cytotoxicity. The
IC50 determination values were calculated from semi-log curves.

Compound	concentration at which a significant decrease in the bacterial adhesion level was obtained ([1]; co-incubation protocol, LF82 MOI 10, 3 h, T84 cells)	dose at which adhesion was decreased ([1]; post-incubation protocol) [mM]	concentration showing a significant inhibitory effect on the bacterial adhesion ([1]; pre-incubation protocol (bacteria incubated 1 h with compound before infection)) [µM]	cytotoxicity values of the control compound [2]
O=C[C@@H](O)[C@@H](O)[C@H](O)[C@H](O)CO [D-mannose]	1 000 μM	10	100	–
CC(=O)O[C@@]12CO[C@@H]1C[C@H](O)[C@@]1(C)C(=O)[C@H](O)C3=C(C)[C@@H](OC(=O)[C@H](O)[C@@H](NC(=O)OC(C)(C)C)c4ccccc4)C[C@@](O)([C@@H](OC(=O)c4ccccc4)[C@H]21)C3(C)C [Docetaxel]	–	–	–	consistent with known values of inherent toxicity
